Measurements reported in paper PMC10087458 (Chemical Biology & Drug Design, 2022).
Converted amounts (≈) assume the structure as drawn. “Also recorded” adds a separate entry of the source. Like-named read-outs stand apart in the source and are kept apart here.

Assays:
[1] = tested on: Mycobacterium tuberculosis in a persistent state; set-up: method as in Barrow et al., [2003]; details: ref Barrow et al., [2003]; cited from earlier work
[2] = tested on: murine macrophages RAW 264.7; assay: Resazurin cytotoxicity assay on RAW 264.7 macrophages; type: cell-based; details: Mus musculus
[3] = tested on: Mycobacterium aurum (ATCC 23366); assay: HT-SPOTi anti-mycobacterial assay, M. aurum; type: cell-based; details: Mycolicibacterium aurum
[4] = tested on: Mycobacterium bovis BCG (ATCC35734); assay: microbe, parasite or virus in culture; type: cell-based; details: Mycobacterium tuberculosis variant bovis BCG, read-out: MIC90 M. bovis BCG, HT-SPOTi; lowest concentration inhibiting 90% of the bacteria
[5] = Equilibrium solubility, modified shake-flask method with HPLC quantification; type: physicochemical; details: shake-flask 24 h, HPLC 230 nm
Description: The equilibrium solubility of ADN‐PEG‐conjugates was determined using a modified version of the shake‐flask method (Plöger et al., [2018]). An excess of the ADN‐PEG‐conjugate was added to either phosphate buffer solution (PBS buffer) or deuterium‐depleted water (DDW) at a pH value of 6.8. The resulting suspension was shaken at 37°C until a (thermodynamic) equilibrium was reached between saturated solution and undissolved solid. Solubility quantification of the samples was achieved using high‐pressure liquid chromatography (HPLC) analysis.
An excess amount of the PEG-ADN conjugates was added into a 20 mL glass vial containing either phosphate buffer solution or DDW. The samples were placed into a shaking water bath at 150 rpm at 37ᵒC for 24h. The supernatant was withdrawn from the suspension using a micro centaur MSB010.CX2.5 centrifuge (MSE Ltd., London, UK) at 1.3 × 10,000 rpm for 1 min.

[6] = tested on: adenosine receptors in RAW264.7 cells; assay: cAMP accumulation in RAW264.7 macrophages (cAMP ELISA); type: cell-based, murine; details: for increase in cAMP compared with forskolin: 1 μM, 10 min incubation, PDE inhibitor pre-treatment, positive control forskolin 1 μM
[7] = tested on: Mycobacterium aurum (ATCC 23366); set-up: method as in Ferguson et al., [2020]; details: ref Ferguson et al., [2020]; cited from earlier work
[8] = tested on: Mycobacterium bovis BCG (ATCC35734); details: ref Ferguson et al., [2020]; cited from earlier work
[9] = RAW264.7, 50% inhibition of cell proliferation, resazurin micro dilution method, RAW 264.7 murine macrophages, read-out: GIC50 RAW 264.7
[10] = ATCC23366, HT-SPOTi, lowest concentration inhibiting 90% of the bacteria, read-out: MIC90 M. aurum
[11] = aqueous buffer, thermodynamic from solid, phosphate buffer solution pH 6.8, 37°C, read-out: Solubility (mean ± SD) PBS
[12] = pH 7, thermodynamic from solid, deuterium-depleted water (DDW), 37°C, read-out: Solubility (mean ± SD) DDW

Row | SMILES | IC50 [2, 9] [mg/L] | MIC90 [3, 10] [mg/L] | MIC90 [4] [mg/L] | increase in cAMP compared with forskolin [6] [%] | further results
1 | Cc1nc(N)c2ncn([C@@H]3O[C@H](CO)[C@@H](O)[C@H]3O)c2n1 [2‐methyl adenosine] | – | – | – | – | growth of Mycobacterium tuberculosis in a persistent state (in words) [1]: inhibited the growth
2 | NNC(=O)c1ccncc1 [Isoniazid, isoniazid, reference compound] | 500 (≈ 3650 µM) | 7.81 (≈ 56.9 µM) | 0.49 (≈ 3.57 µM) | – | –
3 | CS(=O)(=O)OCCOCCOCCOCCOCC#Cc1nc(N)c2ncn([C@@H]3O[C@H](CO)[C@@H](O)[C@H]3O)c2n1 [10b] | 250 (≈ 434 µM) | 250 (≈ 434 µM) | 250 (≈ 434 µM) | 42 | solubility at 24 h [5, 11]: 1.22 ± 0.26 mg/mL (≈ 2120 µM); solubility at 24 h [5, 12]: 1.33 ± 0.32 mg/mL (≈ 2310 µM); cAMP accumulation in RAW264.7 cells (in words) [6]: significant increase; also recorded: considerable increase
4 | CC1(C)O[C@@H]2[C@H](O1)[C@@H](CO)O[C@H]2n1cnc2c(N)nc(C#CCOCCOCCOCCOCCOCCOS(C)(=O)=O)nc21 [11c] | 62.5 (≈ 94.7 µM) | 125 (≈ 189 µM) | 250 (≈ 379 µM) | – | –
5 | CC1(C)O[C@@H]2[C@H](O1)[C@@H](CO)O[C@H]2n1cnc2c(N)nc(C#CCOCCOCCOCCOCCOS(C)(=O)=O)nc21 [11b] | 62.5 (≈ 102 µM) | 500 (≈ 812 µM) | 500 (≈ 812 µM) | 46 | solubility at 24 h [5, 11]: 1.18 ± 0.19 mg/mL (≈ 1920 µM); solubility at 24 h [5, 12]: 1.16 ± 0.64 mg/mL (≈ 1880 µM); cAMP accumulation in RAW264.7 cells (in words) [6]: significant increase; also recorded: considerable increase
6 | CS(=O)(=O)OCCOCCOCCOCCOCCOCC#Cc1nc(N)c2ncn([C@@H]3O[C@H](CO)[C@@H](O)[C@H]3O)c2n1 [10c] | 250 (≈ 403 µM) | 250 (≈ 403 µM) | 250 (≈ 403 µM) | – | –
7 | Nc1nc(I)nc2c1ncn2[C@@H]1O[C@H](CO)[C@@H](O)[C@H]1O [compound 9, 2‐iodoadenosine, reference compound] | – | – | 15.6 (≈ 39.7 µM) | – | IC50 ([2]; RAW264.7, read-out: GIC50 RAW 264.7): 250 mg/L (≈ 636 µM); MIC90 ([3]; ATCC23366, read-out: MIC90 M. aurum): 125 mg/L (≈ 318 µM); bactericidal activity against M. aurum (in words) [7]: not; bactericidal activity against M. bovis (in words) [8]: exhibited bactericidal activity
8 | CC1(C)O[C@@H]2[C@H](O1)[C@@H](COS(N)(=O)=O)O[C@H]2n1cnc2c(N)nc(C#CCOCCOCCOCCOCCOCCOS(C)(=O)=O)nc21 [12c] | 31.2 (≈ 42.2 µM) | 62.5 (≈ 84.6 µM) | 500 (≈ 677 µM) | – | –
9 | Nc1ncnc2c1ncn2[C@@H]1O[C@H](CO)[C@@H](O)[C@H]1O [Adenosine, adenosine, reference compound] | – | – | – | 48 | –
